# Earlier results in patent US20100262098A1, “ABSORBENT ARTICLE WITH ODOUR CONTROL SUBSTANCE” (SCA Hygiene Products AB, priority 2007, published 2010).
# Conditions: autoxidation at 100° C.; not treated with antioxidants
row,Compound,Relative rate of oxidation
1,CCCCC/C=C\C/C=C\CCCCCCCC(=O)O [Linoleic acid],64
2,CCCCCCCC/C=C\CCCCCCCC(=O)O [Oleic acid],6
3,CCCCCCCCCCCCCCCCCC(=O)O [Stearic acid],0.6
